System: P12-Ichikawa
Assay: cell viability relative to DMSO control; higher = less cytotoxic
Details: 48 h
Outline: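 Three leukemia lines were tested: NOMO1 and SEM at 500 cells/well and P12-Ichikawa at 1000 cells/well. Each was adapted for at least four passages in each medium and seeded in 5 μl in 1536-well plates, and library compounds in DMSO were pin-dosed from 47 μM to 0.79 nM in 11 threefold steps. After 48 h at 37°C, CellTiter-Glo One luminescence was read. Viability is a percentage relative to DMSO wells on each plate, with cell-free wells as background.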

[1] = HPLM + 10% dialyzed FBS, 0.000781 µM
[2] = HPLM + 10% dialyzed FBS, 0.00234 µM
[3] = HPLM + 10% dialyzed FBS, 0.00702 µM
[4] = HPLM + 10% dialyzed FBS, 0.0211 µM
[5] = HPLM + 10% dialyzed FBS, 0.0632 µM
[6] = HPLM + 10% dialyzed FBS, 0.19 µM
[7] = HPLM + 10% dialyzed FBS, 0.569 µM
[8] = HPLM + 10% dialyzed FBS, 1.71 µM
[9] = HPLM + 10% dialyzed FBS, 5.12 µM
[10] = HPLM + 10% dialyzed FBS, 15.4 µM
[11] = HPLM + 10% dialyzed FBS, 46.1 µM
[12] = RPMI 5 mM glucose + 10% FBS, 0.000781 µM
[13] = RPMI 5 mM glucose + 10% FBS, 0.00234 µM
[14] = RPMI 5 mM glucose + 10% FBS, 0.00702 µM
[15] = RPMI 5 mM glucose + 10% FBS, 0.0211 µM
[16] = RPMI 5 mM glucose + 10% FBS, 0.0632 µM
[17] = RPMI 5 mM glucose + 10% FBS, 0.19 µM
[18] = RPMI 5 mM glucose + 10% FBS, 0.569 µM
[19] = RPMI 5 mM glucose + 10% FBS, 1.71 µM
[20] = RPMI 5 mM glucose + 10% FBS, 5.12 µM
[21] = RPMI 5 mM glucose + 10% FBS, 15.4 µM
[22] = RPMI 5 mM glucose + 10% FBS, 46.1 µM
[23] = RPMI 5 mM glucose + 10% dialyzed FBS, 0.000781 µM
[24] = RPMI 5 mM glucose + 10% dialyzed FBS, 0.00234 µM
[25] = RPMI 5 mM glucose + 10% dialyzed FBS, 0.00702 µM
[26] = RPMI 5 mM glucose + 10% dialyzed FBS, 0.0211 µM
[27] = RPMI 5 mM glucose + 10% dialyzed FBS, 0.0632 µM
[28] = RPMI 5 mM glucose + 10% dialyzed FBS, 0.19 µM
[29] = RPMI 5 mM glucose + 10% dialyzed FBS, 0.569 µM
[30] = RPMI 5 mM glucose + 10% dialyzed FBS, 1.71 µM
[31] = RPMI 5 mM glucose + 10% dialyzed FBS, 5.12 µM
[32] = RPMI 5 mM glucose + 10% dialyzed FBS, 15.4 µM
[33] = RPMI 5 mM glucose + 10% dialyzed FBS, 46.1 µM

Row | SMILES | cell viability [1] | cell viability [2] | cell viability [3] | cell viability [4] | cell viability [5] | cell viability [6] | cell viability [7] | cell viability [8] | cell viability [9] | cell viability [10] | cell viability [11] | cell viability [12] | cell viability [13] | cell viability [14] | cell viability [15] | cell viability [16] | cell viability [17] | cell viability [18] | cell viability [19] | cell viability [20] | cell viability [21] | cell viability [22] | cell viability [23] | cell viability [24] | cell viability [25] | cell viability [26] | cell viability [27] | cell viability [28] | cell viability [29] | cell viability [30] | cell viability [31] | cell viability [32] | cell viability [33]
1 | OC1=C(Cl)C=C(N\C2=C(\C(=O)NC2=O)C3=C(C=CC=C3)[N+]([O-])=O)C=C1 | 100% | 100% | 98.9% | 102% | 112% | 97.7% | 103% | 99.5% | 90.1% | 87.4% | 79.5% | 98.6% | 109% | 105% | 110% | 99.4% | 98.9% | 111% | 105% | 104% | 83.9% | 58.1% | 100% | 107% | 112% | 115% | 110% | 109% | 113% | 106% | 109% | 86.7% | 69.5%
2 | COc1cc(C[C@@H](CO)[C@H](CO)Cc2ccc(O)c(OC)c2)ccc1O | 94.8% | 102% | 100% | 105% | 106% | 116% | 112% | 111% | 104% | 99.6% | 115% | 99.4% | 95.1% | 108% | 109% | 109% | 111% | 118% | 119% | 114% | 117% | 110% | 109% | 112% | 113% | 118% | 118% | 122% | 119% | 133% | 134% | 136% | 125%
3 | CCOc1cc(C(=O)Nc2ccc(Cl)c(-c3nc4ccccc4[nH]3)c2)cc(OCC)c1OCC | 74.3% | 82.5% | 89% | 91% | 91.9% | 92.9% | 98.9% | 96.1% | 92% | 94.1% | 84.6% | 81.6% | 89.8% | 86.7% | 88.4% | 95.8% | 92.9% | 86.7% | 86.5% | 86.6% | 95.4% | 60.8% | 78.9% | 76.7% | 84% | 86.5% | 85.8% | 81.2% | 88.3% | 82.8% | 79.8% | 81.1% | 53.6%
4 | NC(=O)c1nnn(Cc2cc(Cl)c(C(=O)c3ccc(Cl)cc3)c(Cl)c2)c1N | – | – | – | – | – | – | – | – | – | – | – | 122% | 137% | 122% | 130% | 128% | 128% | 136% | 120% | 120% | 122% | 70.9% | 122% | 128% | 122% | 134% | 123% | 119% | 131% | 121% | 109% | 118% | 68%
5 | Nc1nccc(-c2ccc3noc(-c4ccc(Cl)cc4)c3c2)n1 | 124% | 124% | 131% | 129% | 120% | 124% | 128% | 120% | 122% | 115% | 118% | – | – | – | – | – | – | – | – | – | – | – | 116% | 119% | 122% | 123% | 117% | 115% | 110% | 123% | 115% | 105% | 110%
6 | CN(C)C(=O)[C@H](O)[C@H](Cc1ccccc1)NC(=O)c1cc2cc(Cl)ccc2[nH]1 | 98.8% | 110% | 111% | 114% | 119% | 115% | 122% | 127% | 119% | 80.3% | 43.4% | 95.3% | 112% | 109% | 117% | 119% | 130% | 130% | 130% | 113% | 68.6% | 51.5% | 99.5% | 118% | 118% | 119% | 121% | 131% | 125% | 133% | 127% | 94% | 70%
7 | CN1CCC(CNc2ccc3ncc(-c4cccc(OC(F)(F)F)c4)n3n2)CC1 | 108% | 110% | 97.3% | 109% | 105% | 103% | 108% | 102% | 97.4% | 92.8% | 5.65% | 100% | 101% | 89.4% | 102% | 100% | 102% | 99.8% | 94.7% | 89.1% | 79.7% | 4.48% | 92.7% | 92.9% | 92.2% | 95.4% | 94.7% | 92.4% | 101% | 92.3% | 85.9% | 84.3% | 4.77%
8 | C#CCC(Cc1cnc2nc(N)nc(N)c2n1)c1ccc(C(=O)N[C@@H](CCC(=O)O)C(=O)O)cc1 (stereo partly specified) | – | – | – | – | – | – | – | – | – | – | – | 125% | 119% | 128% | 128% | 44.8% | 47.4% | 29.9% | 27.4% | 23.9% | 29% | 30.8% | 120% | 110% | 115% | 125% | 37.1% | 25.6% | 20.2% | 19.9% | 17.2% | 20.3% | 19%

— the supplement of paper PMC11451515
